The structures appear in SMILES notation. The source made the active and inactive calls. The rule behind the calls is not given here.

Assay [1] in a line: Binding affinity to decoding-site of rRNA in Escherichia coli S30 extract assessed as inhibition of protein translation after 60 mins by coupled transcription/translation assay.
Assay [2] can be described thus: Binding affinity to decoding-site of rRNA in rabbit reticulocytes assessed as inhibition of protein translation after 60 mins by coupled transcription/translation assay. The assay is classed as cell-based, Oryctolagus cuniculus.
A short description of assay [3]: Ratio of IC50 for inhibition of decoding-site of rRNA-mediated protein translation in rabbit reticulocytes to IC50 for inhibition of decoding-site of rRNA-mediated protein translation in Escherichia coli S30 extract. The assay is classed as cell-based.
Assay [4] relates to Bacillus spizizenii. The experiment in a line: Antibacterial activity against Bacillus subtilis ATCC 6633 by double-microdilution method. The assay is classed as functional. A general note: Broth dilution looks for growth in wells or tubes with falling amounts of substance.
In assay [5] the test system is Escherichia coli. In words: Antibacterial activity against Escherichia coli R477/100 by double-microdilution method. The assay is classed as functional.
The test system of assay [6] is HEK293. The experiment in a line: Binding affinity to decoding-site of rRNA in HEK293 cells assessed as read through activity at premature termination codon-containing CFTR G452X nonsense mutant gene (unknown origin) expressed in HEK293 cells after 16 hrs by dual luciferase reporter gene assay. It is filed as cell-based. Particulars: Homo sapiens.
Assay [7] has as its system HEK293. The experiment in a line: Binding affinity to decoding-site of rRNA in HEK293 cells assessed as read through activity at premature termination codon-containing PCDH15 R3X nonsense mutant gene (unknown origin) expressed in HEK293 cells after 16 hrs by dual luciferase reporter gene assay. The assay is classed as cell-based. The settings on record: Homo sapiens. (A reporter such as luciferase makes a cellular process visible.)

For `N[C@H]1[C@@H](O[C@H]2[C@H](O)[C@@H](O)[C@H](N)C[C@@H]2N)O[C@@H](C(=O)O)[C@@H](O)[C@@H]1O.O=S(=O)(O)O`, the IC50 in assay [1] is 0.5 µM; in assay [2], 30 µM. Also, the Ratio IC50 in assay [3] amounted to 60. The same molecule displayed an MIC in assay [4] of 100 µg/mL.

Consider `C[C@H](N)[C@H]1O[C@H](O[C@@H]2[C@@H](O)[C@H](N)C[C@H](N)[C@H]2O[C@H]2O[C@H](CO)[C@@H](O)[C@H](O)[C@H]2N)[C@H](O)[C@@H]1O.O=S(=O)(O)O`, for which the IC50 stood at 2410 µM in assay [1] and 3180 µM in assay [2]. For the same molecule, the Ratio IC50 in assay [3] is 1.3. Further, the MIC in assay [5] and in assay [4] was > 192 µg/mL in each case. In addition, the result in assay [6] and in assay [7] was Active.

`NC[C@H]1O[C@H](O[C@@H]2[C@@H](O)[C@H](N)C[C@H](N)[C@H]2O[C@H]2O[C@H](CO)[C@@H](O)[C@H](O)[C@H]2N)[C@H](O)[C@@H]1O.O=S(=O)(O)O`: the IC50 worked out at 2930 µM in assay [1] and 4320 µM in assay [2]. Moreover, the Ratio IC50 in assay [3] turned out to be 1.5. The MIC in assay [5] and in assay [4] was > 192 µg/mL in each case. In addition, the result in assay [6] and in assay [7] was Active.

Turning to `N[C@H]1[C@@H](O[C@H]2[C@H](O)[C@@H](O)[C@H](N)C[C@@H]2N)O[C@H](CO)[C@@H](O)[C@@H]1O.O=S(=O)(O)O` [PAROMAMINE SULFATE], the IC50 in assay [1] worked out at 10 µM; in assay [2], 800 µM. Also, the Ratio IC50 in assay [3] came out at 80. The MIC in assay [5] and in assay [4] was > 192 µg/mL each time.

As for `C[C@H](N)[C@H]1O[C@H](O[C@@H]2[C@@H](O)[C@H](N)C[C@H](N)[C@H]2O[C@H]2O[C@@H](C(N)=O)[C@@H](O)[C@H](O)[C@H]2N)[C@H](O)[C@@H]1O.O=S(=O)(O)O`, the values for the IC50 in assay [1] and in assay [2] were 2310 µM and 520 µM, respectively. The Ratio IC50 in assay [3] was 0.2. The MIC in assay [5] and in assay [4] was > 192 µg/mL in each case. Besides, the outcome in assay [6] and in assay [7] was inactive.

In the case of `NC[C@H]1O[C@H](O[C@@H]2[C@@H](O)[C@H](N)C[C@H](N)[C@H]2O[C@H]2O[C@@H](C(N)=O)[C@@H](O)[C@H](O)[C@H]2N)[C@H](O)[C@@H]1O.O=S(=O)(O)O`, the IC50 amounted to 2 µM in assay [1] and 20 µM in assay [2]. The Ratio IC50 in assay [3] is 10. Besides, the MIC in assay [4] was found to be 83 µg/mL.

Consider `NC(=O)[C@@H]1O[C@H](O[C@H]2[C@H](O)[C@@H](O)[C@H](N)C[C@@H]2N)[C@H](N)[C@@H](O)[C@@H]1O.O=S(=O)(O)O`, for which the values for the IC50 in assay [1] and in assay [2] were 1300 µM and 700 µM, respectively. In addition, the Ratio IC50 in assay [3] was 0.5. In addition, the MIC in assay [5] and in assay [4] was > 192 µg/mL in each case.

For `C[C@H](N)[C@H]1O[C@H](O[C@@H]2[C@@H](O)[C@H](N)C[C@H](N)[C@H]2O[C@H]2O[C@@H](C(=O)O)[C@@H](O)[C@H](O)[C@H]2N)[C@H](O)[C@@H]1O.O=S(=O)(O)O`, the IC50 was found to be 1300 µM in assay [1] and 600 µM in assay [2]. For the same molecule, the Ratio IC50 in assay [3] is 0.5. The minimal inhibitory concentration (MIC) in assay [5] and in assay [4] was > 192 µg/mL in each case. Further, the outcome in assay [6] and in assay [7] was inactive.

For the molecule `NC[C@H]1O[C@H](O[C@@H]2[C@@H](O)[C@H](N)C[C@H](N)[C@H]2O[C@H]2O[C@@H](C(=O)O)[C@@H](O)[C@H](O)[C@H]2N)[C@H](O)[C@@H]1O.O=S(=O)(O)O`, the IC50 in assay [1] is 420 µM; in assay [2] it was 500 µM. In addition, the Ratio IC50 in assay [3] was 1.2. Besides, the minimum inhibitory concentration (MIC) in assay [5] and in assay [4] was > 192 µg/mL in each case.

As usually defined, the IC50 is the midpoint of a concentration-inhibition curve. By MIC is commonly meant the lowest concentration found to suppress growth. Lower therefore signals a more susceptible organism.

Values taken from ChEMBL document CHEMBL4257494, “Exploring eukaryotic versus prokaryotic ribosomal RNA recognition with aminoglycoside derivatives” (Medchemcomm, 2018).
